Results as given in US9187397B2 (STC.UNM, priority 2004, dated 2015).
Like-named read-outs stand apart in the source and are kept apart here. Values belong to the molecule of their own block, whether it stands above or below them.

Key:
AP-1 = AP-1 luciferase reporter cellular assay (293/AP1-luc, PMA-stimulated); type: cell-based, human; conditions: for activity in the AP-1 cellular assay (screen): 15 μM, compared with curcumin; for IC50: Homo sapiens, inhibition of PMA-induced AP-1 activation, 293/AP1-luc cells, Table 10, read-out: AP-1 IC50
Description: This cell line is obtained by co-transfection of pAP1-luc and pTK-hyg containing plasmids followed by the addition of hygromycin (200 μg/ml) to maintain cell selection.
After 24 hr, the cells had reached approximately 60% confluency. […] Plate wells were gently washed with PBS, pH 7.4, and lysed with passive lysis buffer (1×, 100 μl, Promega). The subsequent chemiluminescent lysates were analyzed with the Luciferase Assay System (Promega) utilizing a TD-20/20 luminometer. The relative light units (photons) were determined by the addition of firefly luciferase substrate (75 μl) to cell lysate (10 μl). The light units were then normalized to the amount of protein in the well (mg/ml) with BCA™ Protein Assay Kit (Pierce) and standardized to percent of control (PMA).
(§1) This cell line is stably transfected with a luciferase reporter controlled by an AP-1 dependent promoter. The cell is stimulated with phorbol ester which activates AP-1. AP-1 then binds to one of three promoter regions on the cells DNA leading to the production of a luciferase enzyme. Luciferin is added to the cell lysates and the luciferase enzyme catalyzes a cleavage of luciferin leading to the emission of light.

[1] = Ferric Reducing/Anti-oxidant Power assay (FRAP assay); design: key to FRAP: active as an antioxidant (+); conditions: for FRAP: antioxidant activity; for activity in the FRAP assay: compared with curcumin
Description: Anti-oxidant activity was also measured in the Ferric reducing/anti-oxidant power assay (FRAP assay) in which the analogs are reacted with a ferric tripyridyltriazine complex. For the FRAP assay (Benzie et al., Meth. Enzymol. 1999, 299, 15-27), the ferric complex was prepared at room temperature by reaction of ferric chloride (16.7 mM) and 2,4,6-tripyridyl-s-triazine (8.33 mM) in acetate buffer (0.25 M) to pH 3.6. The FRAP reagent was used immediately after preparation. […] The reaction was mixed by vortexing, allowed to stabilize for 5 min and the absorbance recorded on a Perkin Elmer UV/Vis Lambda 2S. […] The synthetic analog of α-tocopherol (vitamin E), Trolox, was used as a reference standard (10 μM in ethanol).
The second assay used, the FRAP assay, determines the analogs abilities to reduce a Fe(III) tripyridyltriazine complex to a Fe(II) tripyridyltriazine complex. The following FIGS. 3A-3C) show analogs active in the FRAP assay.

NF-κB = NF-κB luciferase reporter cellular assay (293T/NF-κB-luc, TNFα-stimulated); type: cell-based, human; conditions: for inhibition of the activation of NF-κB by TNFα (screen): 10 μM, compared with curcumin; for IC50: Homo sapiens, HEK-293T
Description: The cell line is derived from human 293T embryonic kidney cells expressing the large T antigen containing a chromosomal integration of a luciferase reporter construct regulated by 6 copies of the NF-κB response element (Panomics, Inc.). This stable clonal cell line is obtained by co-transfection of pNF-κB-luc and pTK-hyg containing plasmids followed by the addition of hygromycin (200 μg/ml) to maintain cell selection.
The cell line was grown in a humidified atmosphere at 37° C. in 5% CO2/95% air and maintained in Dulbecco's Modified Eagle's Medium (DMEM-high glucose containing 4 mM glutamine) containing fetal bovine serum (FBS, 10%), sodium pyruvate (1 mM), penicillin (100 units/ml), streptomycin (100 μg/ml) and hygromycin (100 μg/m) to maintain cell selection (Gibco/Invitrogen).
The 293T/NF-κB-luc cells were re-plated 24 hr prior to treatment, into 24-well cell culture plates in media without hygromycin, to prevent it from interfering with the assay. The cells were then allowed to grow and attach, to the wells, for 24 hr in a humidified atmosphere at 37° C. in 5% CO2/95% air. […] The cells then were placed again in a humidified atmosphere at 37° C. in 5% CO2/95% air for 7 hr. Plate wells were gently washed with PBS, pH 7.4, and lysed with passive lysis buffer (1×, 100 μl, Promega). The subsequent chemiluminescent lysates were analyzed with the Luciferase Assay System (Promega) utilizing a TD-20/20 luminometer. The relative light units (photons) were determined by the addition of firefly luciferase substrate (75 μl) to cell lysate (10 μl). The light units were then normalized to the amount of protein in the well (mg/ml) with BCA™ Protein Assay Kit (Pierce) and standardized to percent of control (TNFα).
as §1, with “This assay utilized a commercially available cell line (Panomics 293T-luc cellular assay) developed for screening inhibitors of NF-κB. This” for “This”, “NF-κB” for “AP-1”, “tumor necrosis factor alpha (TNFα)” for “phorbol ester”, “NF-κB. NF-κB” for “AP-1. AP-1”, “six” for “three”, “cell's” for “cells”
This cell line was developed by Panomics for screening potential inhibitors of NF-κB. Cells are stimulated with TNF-α to express luciferase, whose activity is monitored in a chemiluminometer.
An NF-κB reporter stable cell line from human 293T embryonic kidney cells (293T/NFκB-luc) (Panomics) was grown in a humidified atmosphere at 37° C. in 5% CO2/95% air. The cells were maintained in Dulbecco's Modified Eagle's Medium (DMEM—high glucose containing 4 mM glutamine) supplemented with 10% fetal bovine serum (FBS), 1 mM sodium pyruvate, 100 units/ml penicillin, 100 μg/m streptomycin and 100 μg/ml hygromycin (Gibco/Invitrogen, Carlsbad, Calif.)) to maintain cell selection. One day prior to treatment, the 293T/NFκB-luc cells were plated into 24-well cell culture plates (Costar) at approximately 70% confluency in the above media without hygromycin. The following day cells were fed fresh media 1 hour prior to treatment. […] The cells were placed again in a humidified atmosphere at 37° C. in 5% CO2/95% air for 7 hours. Plate wells were gently washed with phosphate buffered saline, pH 7.4, and lysed with 1× passive lysis buffer (Promega). The subsequent lysates were analyzed with the Luciferase Assay System (Promega) utilizing a TD-20/20 luminometer (Turner Designs). The firefly luciferase relative light units were normalized to protein (mg/ml) with BCATM Protein Assay Kit (Pierce) and standardized to TNF-α control.

[2] = Total Radical-trapping Anti-oxidant Parameter assay (TRAP assay); design: key to TRAP: active as an antioxidant (+); conditions: for activity in the TRAP assay: compared with curcumin; for TRAP: antioxidant activity
Description: This assay is also known as the Total radical-trapping anti-oxidant parameter assay (TRAP assay). For the TRAP assay (Re et al., Free Rad. Biol. […] The turquoise colored reaction was allowed to stabilize for 5 min and the absorbance monitored on a Perkin Elmer UV/Vis Lambda 2S. […] The following FIGS. 2A-2C) show the analogs active in the TRAP assay.

[3] = inhibition of TNFα-induced NF-κB activation, 293T/NF-κB-luc cells, Table 5, read-out: IC50
[4] = inhibition of TNFα-induced NF-κB activation, Table 10, read-out: NF-κB IC50
[5] = inhibition of TNF-α-induced NF-κB activation, Panomics 293T/NFκB-luc, second Table 12, read-out: IC50

SMILES: O=C(/C=C/c1ccccc1C(F)(F)F)/C=C/c1ccccc1C(F)(F)F [Compound 5]
IC50 (NF-κB; [5]): 5 ± 0.3 µM

SMILES: COc1cc(/C=C/C(=O)/C=C(O)/C=C/c2ccc(O)c(OC)c2)ccc1O [3a]
TRAP ([2]; Table 10): +
FRAP ([1]; Table 10): +
IC50 (NF-κB; [4]): 8.2 µM

SMILES: COc1ccc(/C=C/C(=O)/C=C(O)/C=C/c2ccc(OC)c(O)c2)cc1O [3h]
activity in the TRAP assay ([2]; 10 μM in ethanol): more active than curcumin

SMILES: COc1cc(CCC(=O)C(C)=C(O)CCc2ccc(O)c(OC)c2)ccc1O [14a]
activity in the TRAP assay ([2]; 10 μM in ethanol): more active than curcumin
inhibition of the activation of NF-κB by TNFα (screen) (NF-κB): more active than curcumin

SMILES: O=C(/C=C/c1cccnc1)/C=C/c1cccnc1 [Compound 3]
IC50 (NF-κB; [5]): 3.4 ± 0.2 µM

SMILES: COc1cc(/C=C/C(=O)/C(Cc2ccccc2)=C(O)/C=C/c2ccc(O)c(OC)c2)ccc1O [9a]
TRAP ([2]; 10 μM in ethanol, Table 5): +
TRAP ([2]; Table 10): +
FRAP ([1]; 10 μM in ethanol, Table 5): +
FRAP ([1]; Table 10): +
inhibition of the activation of NF-κB by TNFα (screen) (NF-κB): more active than curcumin
IC50 (NF-κB; [3]): 7.6 µM
IC50 (NF-κB; [4]): 7.6 µM
activity in the AP-1 cellular assay (screen) (AP-1): more active than curcumin
IC50 (AP-1): 5.3 µM

SMILES: COc1cc(CCC(=O)/C=C(\O)CCc2ccc(O)c(OC)c2)ccc1O [13a]
activity in the TRAP assay ([2]; 10 μM in ethanol): more active than curcumin
activity in the FRAP assay ([1]; 10 μM in ethanol): potent antioxidant activity

More lines, main results first:

activity in the AP-1 cellular assay (screen) (AP-1): more active than curcumin
SMILES: COc1cccc(OC)c1/C=C/C(=O)/C=C/c1c(OC)cccc1OC [20l]

inhibition of the activation of NF-κB by TNFα (screen) (NF-κB): more active than curcumin
IC50 (NF-κB; [3]): 5.4 µM
IC50 (NF-κB; [4]): 5.4 µM
activity in the AP-1 cellular assay (screen) (AP-1): more active than curcumin
IC50 (AP-1): 8.3 µM
SMILES: COc1cc(/C=C/C(=O)/C=C/c2ccc(OC(C)=O)c(OC)c2)ccc1OC(C)=O [20ag]
FRAP ([1]; 10 μM in ethanol, Table 5): +
FRAP ([1]; Table 10): +

inhibition of the activation of NF-κB by TNFα (screen) (NF-κB): more active than curcumin
SMILES: O=C(/C=C/c1cccc(C(F)(F)F)c1)/C=C/c1cccc(C(F)(F)F)c1 [20v]

activity in the AP-1 cellular assay (screen) (AP-1): Active
SMILES: N#Cc1ccc(C(=O)/C=C/c2ccccc2)cc1 [46al]

inhibition of the activation of NF-κB by TNFα (screen) (NF-κB): more active than curcumin
activity in the AP-1 cellular assay (screen) (AP-1): more active than curcumin
IC50 (AP-1): 11.7 µM
SMILES: O=C(/C=C/c1ccccc1O)/C=C/c1ccccc1O [20q]
activity in the TRAP assay ([2]; 10 μM in ethanol): more active than curcumin
TRAP ([2]; 10 μM in ethanol, Table 5): +
TRAP ([2]; Table 10): +

activity in the AP-1 cellular assay (screen) (AP-1): more active than curcumin
SMILES: COc1cccc(/C=C/C(=O)/C=C/c2cccc(OC)c2OC)c1OC [20d]

activity in the AP-1 cellular assay (screen) (AP-1): Active
SMILES: O=C(O)c1ccc(C(=O)/C=C/c2ccccc2)cc1 [46ad]
activity in the FRAP assay ([1]; 10 μM in ethanol): active

activity in the AP-1 cellular assay (screen) (AP-1): more active than curcumin
SMILES: COc1ccccc1/C=C/C(=O)/C=C/c1ccccc1OC [20c]
